Source: patent publication US5185320A, “O^56 -alkyl derivatives of aglycone and pseudo aglycones of teicoplanin” (Gruppo Lepetit S.p.A., priority 1989, dated 1993)

Columns and labels:
Type in all cases: cell-based
Conditions in all cases: inoculum about 10^4 CFU/ml, 18-24 h at 37° C.
[1] = system: Pseudomonas aeruginosa ATCC 10145; assay: MIC, standard dilution test, Pseudomonas aeruginosa ATCC 10145
Description: (§1) ISOSENSITEST broth (Oxoid) and TOLLD-HEWITT broth (Difco) are used for growing staphylococci and streptococci, respectively. Broth cultures are diluted so that the final inoculum is about 10^4 colony forming units/ml (CFU/ml).

Strep. pyogenes C 203 = assay: MIC, standard dilution test, Strep. pyogenes C 203
Description: as §1

[2] = system: Strep. faecalis ATCC 7080; assay: MIC, standard dilution test, Strep. faecalis ATCC 7080
Description: as §1

Strep. mitis L 796 = assay: MIC, standard dilution test, Strep. mitis L 796
Description: as §1

[3] = system: Staph. haemolyticus L 602; assay: MIC, standard dilution test, Staph. haemolyticus L 602
Description: as §1

[4] = system: Neisseria gonorrhoeae ISM68/126; assay: MIC, standard dilution test, Neisseria gonorrhoeae ISM68/126
Description: as §1

[5] = system: Staph. epidermidis ATCC 12228; assay: MIC, standard dilution test, Staph. epidermidis ATCC 12228
Description: as §1

[6] = system: Haemophilus influenzae ATCC 19418; assay: MIC, standard dilution test, Haemophilus influenzae ATCC 19418
Description: as §1

[7] = system: Proteus vulgaris ATCC 881; assay: MIC, standard dilution test, Proteus vulgaris ATCC 881
Description: as §1

Staph. aureus Tour L 165 = assay: MIC, standard dilution test, Staph. aureus Tour L 165
Description: as §1

Strep. pneumoniae UC41 = assay: MIC, standard dilution test, Strep. pneumoniae UC41
Description: as §1

[8] = system: Escherichia coli SKF 12140; assay: MIC, standard dilution test, Escherichia coli SKF 12140
Description: as §1

Row | Structure (SMILES) | Minimal inhibitory concentration (MIC) [1] | Minimal inhibitory concentration (MIC) (Strep. pyogenes C 203) | Minimal inhibitory concentration (MIC) [2] | Minimal inhibitory concentration (MIC) (Strep. mitis L 796) | Minimal inhibitory concentration (MIC) [4] | Minimal inhibitory concentration (MIC) [5] | Minimal inhibitory concentration (MIC) [6] | Minimal inhibitory concentration (MIC) [7] | Minimal inhibitory concentration (MIC) (Staph. aureus Tour L 165) | Minimal inhibitory concentration (MIC) (Strep. pneumoniae UC41) | Minimal inhibitory concentration (MIC) [8] | Minimal inhibitory concentration (MIC) [3]
1 | COC(=O)C1NC(=O)C2NC(=O)C(NC(=O)C3NC(=O)C4NC(=O)C(Cc5ccc(c(Cl)c5)Oc5cc3cc(c5OCCCCN)Oc3ccc(cc3Cl)C2O[C@@H]2O[C@H](CO)[C@@H](O)[C@H](O)[C@H]2NC(C)=O)NC(=O)C(N)c2ccc(O)c(c2)Oc2cc(O)cc4c2)c2ccc(O)c(c2)-c2c(O[C@H]3O[C@H](CO)[C@@H](O)[C@H](O)[C@@H]3O)cc(O)cc21 (stereo partly drawn) [Compound 10, O^56-(4-aminobutyl)teicoplanin pseudoaglycone methyl ester] | > 128 | 0.125 | 4 | 1 | > 128 | 4 | > 128 | > 128 | 2 | 1 | > 128 | 16
2 | N#CCOC(=O)C1NC(=O)C2NC(=O)C(NC(=O)C3NC(=O)C4NC(=O)C(Cc5ccc(c(Cl)c5)Oc5cc3cc(c5OCC#N)Oc3ccc(cc3Cl)C2O)NC(=O)C(N)c2ccc(O)c(c2)Oc2cc(O)cc4c2)c2ccc(O)c(c2)-c2c(O)cc(O)cc21.O=C(O)C(F)(F)F (stereo not drawn) [Compound 12, O^56 -(cyanomethyl)deglucoteicoplanin cyanomethyl ester trifluoroacetate salt] | > 128 | 0.125 | 1 | 0.125 | > 128 | 0.063 | 64 | > 128 | 0.125 | 0.125 | > 128 | 1
3 | COC(=O)C1NC(=O)C2NC(=O)C(NC(=O)C3NC(=O)C4NC(=O)C(Cc5ccc(c(Cl)c5)Oc5cc3cc(c5OCCN3CCOCC3)Oc3ccc(cc3Cl)C2O)NC(=O)C(N)c2ccc(O)c(c2)Oc2cc(O)cc4c2)c2ccc(O)c(c2)-c2c(O)cc(O)cc21.Cl.Cl (stereo not drawn) [Compound 14, O^56-[2-(1-morpholinyl)ethyl]deglucoteicoplanin methyl ester dihydrochloride] | > 128 | 0.25 | 0.125 | 0.125 | 64 | 0.125 | 64 | > 128 | 0.25 | 0.125 | 32 | 2
4 | NC1C(=O)NC2Cc3ccc(c(Cl)c3)Oc3cc4cc(c3OC3CCOC3=O)Oc3ccc(cc3Cl)C(O)C3NC(=O)C(NC(=O)C4NC(=O)C(NC2=O)c2cc(O)cc(c2)Oc2cc1ccc2O)c1ccc(O)c(c1)-c1c(O)cc(O)cc1C(C(=O)O)NC3=O (stereo not drawn) [Compound 16, O^56-(tetrahydro-2-oxo-3-furanyl)deglucoteicoplanin] | > 128 | 0.5 | 0.5 | 0.5 | 64 | 0.25 | > 128 | > 128 | 0.125 | 0.25 | > 128 | 4
5 | NC1C(=O)NC2Cc3ccc(c(Cl)c3)Oc3cc4cc(c3OCc3ccccc3)Oc3ccc(cc3Cl)C(O)C3NC(=O)C(NC(=O)C4NC(=O)C(NC2=O)c2cc(O)cc(c2)Oc2cc1ccc2O)c1ccc(O)c(c1)-c1c(O)cc(O)cc1C(C(=O)OCc1ccccc1)NC3=O (stereo not drawn) [Compound 20, O^56 -phenylmethyldeglucoteicoplanin phenylmethyl ester] | > 128 | 0.125 | 0.5 | 0.125 | > 128 | 0.25 | > 128 | > 128 | 0.5 | 0.25 | > 128 | 4
6 | NC1C(=O)NC2Cc3ccc(c(Cl)c3)Oc3cc4cc(c3OC3CCOC3=O)Oc3ccc(cc3Cl)C(O)C3NC(=O)C(NC(=O)C4NC(=O)C(NC2=O)c2cc(O)cc(c2)Oc2cc1ccc2O)c1ccc(O)c(c1)-c1c(O)cc(O)cc1C(C(=O)OCc1ccccc1)NC3=O (stereo not drawn) [Compound 21, O^56-(tetrahydro-2-oxo-3-furanyl)deglucoteicoplanin phenylmethyl ester] | > 128 | 0.125 | 2 | 0.25 | > 128 | 1 | > 128 | > 128 | 2 | 0.25 | > 128 | 4

More lines, main results first:

Row | Minimal inhibitory concentration (MIC) [1] | Minimal inhibitory concentration (MIC) (Strep. pyogenes C 203) | Minimal inhibitory concentration (MIC) [2] | Minimal inhibitory concentration (MIC) (Strep. mitis L 796) | Minimal inhibitory concentration (MIC) [4] | Minimal inhibitory concentration (MIC) [5] | Minimal inhibitory concentration (MIC) [6] | Minimal inhibitory concentration (MIC) [7] | Minimal inhibitory concentration (MIC) (Staph. aureus Tour L 165) | Minimal inhibitory concentration (MIC) (Strep. pneumoniae UC41) | Minimal inhibitory concentration (MIC) [8] | Structure (SMILES) | Minimal inhibitory concentration (MIC) [3]
7 | > 128 | 0.125 | 1 | 0.25 | > 128 | 0.125 | 64 | > 128 | 0.5 | 0.25 | 64 | COC(=O)C1NC(=O)C2NC(=O)C(NC(=O)C3NC(=O)C4NC(=O)C(Cc5ccc(c(Cl)c5)Oc5cc3cc(c5OCCBr)Oc3ccc(cc3Cl)C2O)NC(=O)C(N)c2ccc(O)c(c2)Oc2cc(O)cc4c2)c2ccc(O)c(c2)-c2c(O)cc(O)cc21 (stereo not drawn) [Compound 11, O^56-(2-bromoethyl)deglucoteicoplanin methyl ester] | 2
8 | 64 | 0.125 | 0.125 | 0.125 | 32 | 0.25 | 64 | 128 | 0.125 | 0.25 | 8 | COC(=O)C1NC(=O)C2NC(=O)C(NC(=O)C3NC(=O)C4NC(=O)C(Cc5ccc(c(Cl)c5)Oc5cc3cc(c5OCCN3CCCC3)Oc3ccc(cc3Cl)C2O)NC(=O)C(N)c2ccc(O)c(c2)Oc2cc(O)cc4c2)c2ccc(O)c(c2)-c2c(O)cc(O)cc21.Cl.Cl (stereo not drawn) [Compound 13, O^56-[2-(1-pyrrolidinyl)ethyl]deglucoteicoplanin methyl ester dihydrochloride] | 0.5
9 | 64 | 0.063 | 0.25 | 0.25 | 64 | 0.125 | 128 | 64 | 0.125 | 0.125 | 8 | NCCNCCOc1c2cc3cc1Oc1ccc(cc1Cl)C(O)C1NC(=O)C(NC(=O)C3NC(=O)C3NC(=O)C(Cc4ccc(c(Cl)c4)O2)NC(=O)C(N)c2ccc(O)c(c2)Oc2cc(O)cc3c2)c2ccc(O)c(c2)-c2c(O)cc(O)cc2C(C(=O)NCCN)NC1=O (stereo not drawn) [Compound 15, O^56-[2-(1-ethylendiaminyl)ethyl]deglucoteicoplanin ethylenediamine amide] | 0.25
10 | > 128 | 0.125 | 0.125 | 0.25 | > 128 | 0.125 | > 128 | > 128 | 0.25 | 0.5 | > 128 | Cl.NC1C(=O)NC2Cc3ccc(c(Cl)c3)Oc3cc4cc(c3OCCBr)Oc3ccc(cc3Cl)C(O)C3NC(=O)C(NC(=O)C4NC(=O)C(NC2=O)c2cc(O)cc(c2)Oc2cc1ccc2O)c1ccc(O)c(c1)-c1c(O)cc(O)cc1C(C(=O)OCCBr)NC3=O (stereo not drawn) [Compound 17, O^56-(2-bromoethyl)deglucoteicoplanin 2-bromoethyl ester hydrochloride salt] | 4
